Consider 23 molecules from patent publication US10053431B2, “Tetrahydro-benzodiazepinones” (priority 2013, dated 2018).

Structures are written as SMILES. Counter-ions that a name gives are not always drawn. Like-named read-outs stand apart in the source and are kept apart here. Bounds are passed on as bounds.

One test addresses BIR2 domain of XIAP (Homo sapiens (Human), UniProt P98170, C202A/C213G). The test can be described thus: TR-FRET assay for BIR2 (inhibition of binding of XIAP BIR2 domain to SMAC-derived Peptide A).
A further test concerns the target BIR3 domain of XIAP (Homo sapiens (Human), UniProt P98170). The test can be described thus: TR-FRET assay for BIR3 (inhibition of binding of XIAP BIR3 domain to SMAC-derived Peptide A). As to conditions: 6x His-tagged BIR3 domain (aa 241-356 of XIAP) 10 nM, Peptide A 20 nM, TR-FRET. (In general: Time-resolved FRET reads energy transfer from a long-lived donor to a nearby acceptor.)

[1] abbreviates: 6x His-tagged BIR2 domain (aa 124-240 of XIAP) 10 nM, Peptide A 20 nM, TR-FRET, read-out: IC50 BIR2.

BIR2 domain of XIAP, sequence (P98170 124-240 with tags or gaps C202A/C213G limits assumed): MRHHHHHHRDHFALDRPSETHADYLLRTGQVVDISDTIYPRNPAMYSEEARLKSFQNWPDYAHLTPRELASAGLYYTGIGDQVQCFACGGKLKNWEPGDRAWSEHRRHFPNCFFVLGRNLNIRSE
BIR3 domain of XIAP, sequence (P98170 241-356 with tags or gaps limits assumed): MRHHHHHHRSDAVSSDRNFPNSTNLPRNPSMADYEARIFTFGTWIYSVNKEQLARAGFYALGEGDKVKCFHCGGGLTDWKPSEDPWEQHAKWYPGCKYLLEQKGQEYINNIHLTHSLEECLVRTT

Consider `CN[C@@H](C)C(=O)N[C@H]1CN(C(=O)C2CCOCC2)c2cc(C(F)(F)F)ccc2N(Cc2c(C3CC3)cnc3ccccc23)C1=O` [Example 184, (S)-N-((S)-1-((3-cyclopropylquinolin-4-yl)methyl)-2-oxo-5-(tetrahydro-2H-pyran-4-carbonyl)-7-(trifluoromethyr)-2,3,4,5-tetrahydro-1H-benzo[b][1,4]diazepin-3-yl)-2-(methylamino)propanamide], for which the IC50 (usually the concentration at which inhibition is half-maximal) on BIR2 domain of XIAP (setting [1]) was found to be 0.0183 µM; at BIR3 domain of XIAP, 15.2 µM.

In the case of `CN[C@@H](C)C(=O)N[C@H]1CN(C(=O)c2ccc(C#N)cc2)c2ccccc2N(Cc2c(OC(F)F)ccc3ccccc23)C1=O` [Example 74, (S)—N—((S)-5-(4-Cyanobenzoyl)-1-((2-(difluoromethoxy)naphthalen-1-yl)methyl)-2-oxo-2,3,4,5-tetrahydro-1H-benzo[b][1,4]diazepin-3-yl)-2-(methylamino)propanamide], the figures for the IC50 on BIR2 domain of XIAP (setting [1]) and on BIR3 domain of XIAP were 0.049 µM and above 54.8 µM, respectively.

With `CN[C@@H](C)C(=O)N[C@H]1CN(C(=O)CCC(=O)O)c2ccccc2N(Cc2c(C)ccc3ccccc23)C1=O` [Example 16, 4-[(S)-3-((S)-2-Methylamino-propionylamino)-5-(2-methyl-naphthalen-1-ylmethyl)-4-oxo-2,3,4,5-tetrahydro-benzo[b][1,4]diazepin-1-yl]-4-oxo-butyric acid hydrochloride], the IC50 on BIR2 domain of XIAP (setting [1]) is 0.126 µM; at BIR3 domain of XIAP it was above 54.8 µM.

With `CN[C@@H](C)C(=O)N[C@H]1CN(S(=O)(=O)CS(C)(=O)=O)c2ccccc2N(Cc2c(C)ccc3ccccc23)C1=O` [Example 18, (S)—N—[(S)-5-Methanesulfonylmethanesulfonyl-1-(2-methyl-naphthalen-1-ylmethyl)-2-oxo-2,3,4,5-tetrahydro-1H-benzo[b][1,4]diazepin-3-yl]-2-methylamino-propionamide trifluoroacetate], the IC50 was 0.59 µM on BIR2 domain of XIAP (setting [1]) and above 54.8 µM at BIR3 domain of XIAP.

Regarding `CN[C@@H](C)C(=O)N[C@H]1CN(C(=O)C2CCOCC2)c2cc(C#N)ccc2N(Cc2c(C3CC3)cnc3ccccc23)C1=O` [Example 180, (S)-N-((S)-7-cyano-1-((3-cyclopropylquinolin-4-yl)methyl)-2-oxo-5-(telrahydro-2H-pyran-4-carbonyl)-2,3,4,5-tetrahydro-1H-benzo[b][1,4]diazepin-3-yl)-2-(methylamino)propanamide], the figures for the IC50 on BIR2 domain of XIAP (setting [1]) and at BIR3 domain of XIAP were 0.018 µM and 16.5 µM, respectively.

For the molecule `CN[C@@H](C)C(=O)N[C@H]1CN(C(C)=O)c2cc(C#N)ccc2N(Cc2c(C3CC3)ccc3c(C#N)cccc23)C1=O` [Example 176, (S)-N-((S)-5-acetyl-7-cyano-1-((5-cyano-2-cyclopropylnaphthalen-1-yl)methyl)-2-oxo-2,3,4,5-tetrahydro-1H-benzo[b][1,4]diazepin-3-yl)-2-(methylamino)propanamide hydrochloride], the values for the IC50 at BIR2 domain of XIAP (setting [1]) and at BIR3 domain of XIAP were 0.0382 µM and 25.6 µM, respectively.

Take `CC[C@H](NCCO)C(=O)NC1C(=O)N(Cc2c(OC)ccc3c(Br)cccc23)c2ccccc2N(c2ccccc2)C1=O` (stereo partly drawn) [Example 138, (2S)-N-(1-((5-bromo-2-methoxynaphthalen-1-yl)methyl)-2,4-dioxo-5-phenyl-2,3,4,5-tetrahydro-1H-benzo[b][1,4]diazepin-3-yl)-2-(2-hydroxyethylamino)butanamide]: the IC50 on BIR2 domain of XIAP (setting [1]) is 0.0694 µM; at BIR3 domain of XIAP, above 54.8 µM.

Regarding `CC[C@H](NC)C(=O)NC1C(=O)N(C)c2ccccc2N(Cc2c(C)ccc3ccccc23)C1=O` (stereo partly drawn) [Example 114, (2S)-N-(1-methyl-5-((2-methylnaphthalen-1-yl)methyl)-2,4-dioxo-2,3,4,5-tetrahydro-1H-benzo[b][1,4]diazepin-3-yl)-2-(methylamino)butanamide], the IC50 at BIR2 domain of XIAP (setting [1]) was 0.53 µM; at BIR3 domain of XIAP, above 54.8 µM.

Turning to `COc1ccc2ccccc2c1CN1C(=O)[C@@H](NC(=O)[C@H](C)N)CN(C(=O)c2ccc(N)cc2)c2ccccc21` [Example 65, (S)-2-amino-N—((S)-5-(4-aminobenzoyl)-1-((2-methoxynaphthalen-1-yl)methyl)-2-oxo-2,3,4,5-tetrahydro-1H-benzo[b][1,4]diazepin-3-yl)propanamide], the figures for the IC50 at BIR2 domain of XIAP (setting [1]) and on BIR3 domain of XIAP were 0.007 µM and 23.6 µM, respectively.

As to `CN[C@@H](C)C(=O)N[C@H]1CN(C(=O)c2ccc(S(C)(=O)=O)cc2)c2ccccc2N(Cc2c(C)ccc3ccccc23)C1=O` [Example 13c], the IC50 was 0.119 µM on BIR2 domain of XIAP (setting [1]) and above 54.8 µM on BIR3 domain of XIAP.

With `CN[C@@H](C)C(=O)NC1C(=O)N(Cc2c(OC)ccc3cc(Br)ccc23)c2ccccc2N(c2ccccc2)C1=O` (stereo partly drawn) [Example 128, (2S)-N-(1-((6-bromo-2-methoxynaphthalen-1-yl)methyl)-2,4-dioxo-5-phenyl-2,3,4,5-tetrahydro-1H-benzo[b][1,4]diazepin-3-yl)-2-(methylamino)propanamide], the IC50 at BIR2 domain of XIAP (IC50 BIR2) worked out at 0.00499 µM; at BIR3 domain of XIAP, 44.8 µM.

For the molecule `CN[C@@H](C)C(=O)N[C@H]1CN(C(=O)c2ccc(C(C)=O)cc2)c2ccccc2N(Cc2nn(-c3ccccc3C#N)c3ccccc23)C1=O` [Example 120, (S)-N-((S)-5-(4-acetylbenzoyl)-1-((1-(2-cyanophenyl)-1H-indazol-3-yl)methyl)-2-oxo-2,3,4,5-tetrahydro-1H-benzo[b][1,4]diazepin-3-yl)-2-(methylamino)propanamide 2,2,2-trifluoroacetate], the IC50 on BIR2 domain of XIAP (setting [1]) is 0.00628 µM; on BIR3 domain of XIAP it was above 54.8 µM.

For the molecule `CN[C@@H](C)C(=O)N[C@H]1CN(C(=O)c2ccc(N)cc2)c2ccccc2N(Cc2noc3ccccc23)C1=O` [Example 71, (S)—N—((S)-5-(4-Aminobenzoyl)-1-(benzo[d]isoxazol-3-ylmethyl)-2-oxo-2,3,4,5-tetrahydro-1H-benzo[b][1,4]diazepin-3-yl)-2-(methylamino)propanamide hydrochloride], the IC50 on BIR2 domain of XIAP (setting [1]) is 0.064 µM; at BIR3 domain of XIAP it was above 54.8 µM.

Regarding `CN[C@@H](C)C(=O)N[C@@H]1C(=O)N(CC(=O)Nc2ccccc2)c2ccccc2N(C(C)=O)[C@H]1C` [Example 191, (S)-N-((2S,3S)-1-acetyl-2-methyl-4-oxo-5-(2-oxo-2-(phenylamino)ethyl)-2,3,4,5-tetrahydro-1H-benzo[b][1,4]diazepin-3-yl)-2-(methylamino)propanamide hydrochloride], the IC50 on BIR2 domain of XIAP (setting [1]) was 0.434 µM; on BIR3 domain of XIAP it was above 54.8 µM.

`CN[C@@H](C)C(=O)N[C@H]1CN(C(=O)Cc2cccnc2)c2ccccc2N(Cc2c(OC)ccc3c(Br)cccc23)C1=O` [Example 88, (S)—N—((S)-1-((5-bromo-2-methoxynaphthalen-1-yl)methyl)-2-oxo-5-(2-(pyridin-3-yl)acetyl)-2,3,4,5-tetrahydro-1H-benzo[b][1,4]diazepin-3-yl)-2-(methylamino)propanamide hydrochloride]: the IC50 on BIR2 domain of XIAP (setting [1]) turned out to be 0.014 µM; at BIR3 domain of XIAP it was 39.9 µM.

As for `CN[C@@H](C)C(=O)N[C@H]1CN(C(=O)OC)c2ccccc2N(Cc2c(C)ccc3ccccc23)C1=O` [Example 20, ((S)-3-((S)-2-Methylamino-propionylamino)-5-(2-methyl-naphthalen-1-ylmethyl)-4-oxo-2,3,4,5-tetrahydro-benzo[b][1,4]diazepine-1-carboxylic acid methyl ester hydrochloride], the IC50 at BIR2 domain of XIAP (setting [1]) is 0.588 µM; at BIR3 domain of XIAP, above 54.8 µM.

In the case of `CN[C@@H](C)C(=O)N[C@@H]1C(=O)N(CC(=O)Nc2c(F)cccc2F)c2ccccc2N(C(C)=O)[C@H]1C` [Example 190, (S)-N-((2S,3S)-1-acetyl-5-(2-(2,6-difluorophenylamino)-2-oxoethyl)-2-methyl-4-oxo-2,3,4,5-tetrahydro-1H-benzo[b][1,4]diazepin-3-yl)-2-(methylamino)propanamide hydrochloride], the IC50 on BIR2 domain of XIAP (setting [1]) is 0.0853 µM; at BIR3 domain of XIAP, above 54.8 µM.

With `CN[C@@H](C)C(=O)N[C@H]1CN(C(=O)c2cccc(C#N)c2)c2ccccc2N(Cc2c(OC)ccc3cc(Br)ccc23)C1=O` [Example 90c], the IC50 on BIR2 domain of XIAP (setting [1]) came out at 0.006 µM; on BIR3 domain of XIAP it was 21.9 µM.

For `CN[C@@H](C)C(=O)N[C@H]1CN(C(=O)CS(C)(=O)=O)c2ccc(C#N)cc2N(Cc2c(OC)ccc3ccccc23)C1=O` [Example 171, (S)-N-((S)-8-cyano-1-((2-methoxynaphthalen-1-yl)methyl)-5-(2-(methylsulfonyl)acetyl)-2-oxo-2,3,4,5-tetrahydro-1H-benzo[b][1,4]diazepin-3-yl)-2-(methylamino)propanamide hydrochloride], the IC50 is 0.0303 µM at BIR2 domain of XIAP (setting [1]) and 41.2 µM on BIR3 domain of XIAP.

As to `CCN[C@@H](CC)C(=O)NC1C(=O)N(Cc2c(OC)ccc3c(Br)cccc23)c2ccccc2N(c2ccccc2)C1=O` (stereo partly drawn) [Example 134, (2S)-N-(1-((5-bromo-2-methoxynaphthalen-1-yl)methyl)-2,4-dioxo-5-phenyl-2,3,4,5-tetrahydro-1H-benzo[b][1,4]diazepin-3-yl)-2-(ethylamino)butanamide], the results for the IC50 on BIR2 domain of XIAP (IC50 BIR2) and at BIR3 domain of XIAP were 0.0325 µM and above 54.8 µM, respectively.

Turning to `CN[C@@H](C)C(=O)N[C@H]1CN2C(=O)CCCCNC(=O)c3ccc4c(c(OC)ccc4c3)CN(C1=O)c1ccccc12` [Example 54, Cyclic-5-[(S)-5-(5-amino-pentanoyl)-3-((S)-2-methylamino-propionylamino)-2-oxo-2,3,4,5-tetrahydro-benzo[b][1,4]diazepin-1-ylmethyl]-6-methoxy-naphthalene-2-carboxylic amide hydrochloride], the values for the IC50 on BIR2 domain of XIAP (setting [1]) and at BIR3 domain of XIAP were 0.018 µM and 16 µM, respectively.

As for `CN[C@@H](C)C(=O)N[C@H]1CN(C(=O)CC2CCCCC2)c2ccccc2N(Cc2c(C)ccc3ccccc23)C1=O` [Example 96e], the IC50 at BIR2 domain of XIAP (setting [1]) is 0.685 µM; at BIR3 domain of XIAP it was above 54.8 µM.

For `CN[C@@H](C)C(=O)N[C@H]1CN(C(=O)c2cc(OC)c(OC)c(OC)c2)c2ccccc2N(Cc2c(C)ccc3ccccc23)C1=O` [Example 13g], the 50% inhibitory concentration (IC50) at BIR2 domain of XIAP (setting [1]) is 0.481 µM; on BIR3 domain of XIAP, above 54.8 µM.
